The structures appear in SMILES notation.

Assay [1] concerns TMV. Nature of the assay: Protection of tobacco against TMV infected 3 weeks after the last treatment (Example 27). It is filed as in vivo. Conditions: infected with TMV 3 weeks after the last treatment. The procedure:
They proceeded as in Example 24, using substances 1-4 at concentrations of 10, 40 and 80 mg/L for treatment, with treated and control plants divided into 3 batches and their leaves infected with the virus 1, 2 and 3 weeks after the last treatment, respectively. […] A similar effect occurred with spraying.

The next assay concerns poinsettia. The note with it: treated three times, 50 mg/L; not watered for 7 days; control plants wilted. An excerpt: The plants were then subjected to drought stress—they were not watered for 7 days.
The next assay has as its system powdery mildew fungus. It is filed as in vivo, tomato. Conditions: 80 mg/L, watered twice; 2 weeks after infection. The procedure: Tomato plants, at the stage of the first pair of developed true leaves, were watered twice with a solution of substance 1-32 at a concentration of 80 mg/L, at a weekly interval. The control was tomato plants watered only with water. […] The suspension was prepared from culture on solid medium. Protection against biotic stress was evaluated by comparing the area of leaves affected by infection.

Assay [2] deals with Tobacco Mosaic Virus (TMV). The assay can be described thus: Protection of tobacco against TMV infection by spraying twice (Example 25). It is filed as in vivo, Nicotiana tabacum cv. Xanthi. The note with it: sprayed twice, 7 days after infection. The source says: 5-chlorosalicylate of choline; 3. 3,5-dichlorosalicylate of choline; 4. 3-chlorosalicylate of sodium, 5. 3-chlorosalicylate of potassium, 6. 3-chlorosalicylate of calcium, 7.

The test system of assay [3] is TMV. Nature of the assay: Protection of tobacco against TMV, single spray, comparison with BION (Example 26). It is filed as in vivo, Nicotiana tabacum cv. Xanthi. Conditions: sprayed once, infected a week later. The procedure:
Tobacco plants (Nicotiana tabacum) cv. Xanthi at the stage of three developed leaves were sprayed once with solutions of substance 1-5 or BION™ at concentrations of 10, 40, 80 mg/L. A week later, they were mechanically infected with TMV by rubbing the leaves with a square soaked in a suspension of purified virus, with a concentration of about 2 μg/ml. The level of protection against the effects of biotic stress was evaluated by comparing the number of necrotic spots caused by TMV on the leaves of plants treated with substances 1-5 and BION™ and control plants.
A reduction in the number of necrotic spots indicates protection from the effects of the biotic agent on the plant.

For assay [4], the system named is Tobacco Mosaic Virus (TMV). The assay can be described thus: Protection of tobacco against TMV infection by watering twice (Example 24). Type of assay: in vivo, Nicotiana tabacum cv. Xanthi. Conditions: watered twice, 7 days after infection. The procedure:
Tobacco plants (Nicotiana tabacum) cv. […] 3,5-dichlorosalicylate of choline; 4. 3-chlorosalicylate of sodium, 5. 3-chlorosalicylate of potassium, 6. 3-chlorosalicylate of calcium, 7. 3-chlorosalicylate of magnesium at a concentration of 10 or 40 or 80 mg/L, at one-week intervals. The control was tobacco plants watered only with water. One week after the second treatment of the plants with the preparation, mechanical infection of the leaves with Tobacco Mosaic Virus (TMV) was carried out. This consisted of rubbing carborundum-sprinkled leaves several times with fingers soaked in a suspension of purified virus at a concentration of about 2 μg/ml. In order to evaluate the effectiveness of the tested substances in protection against biotic stresses, the TMV model and tobacco cv. Xanthi characterized by an interaction in the form of hypersensitivity phenomenon, i.e. the formation of easily quantifiable necrotic spots, were used.

Assay [5] has as its system Pseudomonas syringae pv. Tomato. Nature of the assay: Direct effect on bacterial infectivity (Example 22). It is filed as in vivo. The note with it: tobacco plant, 5 days after infection with solution of bacteria and test substance; control 100. The procedure:
Proceeding as in example 21, Pseudomonas syringae pv. Tomato bacteria were tested and incubated in bacterial medium.

Consider `C[N+](C)(C)CCO.O=C([O-])c1cccc(Cl)c1O` [choline 3-chlorosalicylate], for which the “% reduction in necrotic spots compared to control” value (“% reduction in necrotic spots” below) in the assay with TMV [1] (10 mg/L) stood at 58%; in the assay with TMV [1] (40 mg/L), 92%; in the assay with TMV [1] (80 mg/L) it was 98%; in the assay with powdery mildew fungus, 95%; in assay [2] (10 mg/L), 80%; in assay [2] (40 mg/L) it was 100%. The “% reduction in necrotic spots” value in assay [2] (80 mg/L) is on record as 85%; in the assay with TMV [3] (10 mg/L), 58%; in the assay on TMV [3] (40 mg/L) it was 92%; in the assay on TMV [3] (80 mg/L), 98%; in assay [4] (10 mg/L), 80%; in assay [4] (40 mg/L), 100%. For the same compound, the “% reduction in necrotic spots” value in assay [4] (80 mg/L) worked out at 100%. In addition, the “drought effects on the plants” value in the assay with poinsettia was “no drought effects were observed”. The “% of necrotic spots” value in assay [5] was found to be 99%.
